The values that follow come from article PMC5557372 (ChemMedChem, 2017).

≈ marks a conversion by molar mass, not a printed value. Where “and” joins values, the source holds several entries; their conditions need not be identical. Identical values can stand only once. Like-named read-outs stand apart in the source and are kept apart here.

For one data set, the target named is Complex II (CII) (Rattus norvegicus, UniProt P21913+Q641Z9+Q6PCT8). Nature of the data set: Complex II inhibition assay. It counts as biochemical. The settings on record: for CII inhibition activity (in words): rat heart mitochondria; for LLE: Ligand-Lipophilicity Efficiency (LLE = pIC50-ClogP).
Complex II (CII), sequence (P21913 31-282): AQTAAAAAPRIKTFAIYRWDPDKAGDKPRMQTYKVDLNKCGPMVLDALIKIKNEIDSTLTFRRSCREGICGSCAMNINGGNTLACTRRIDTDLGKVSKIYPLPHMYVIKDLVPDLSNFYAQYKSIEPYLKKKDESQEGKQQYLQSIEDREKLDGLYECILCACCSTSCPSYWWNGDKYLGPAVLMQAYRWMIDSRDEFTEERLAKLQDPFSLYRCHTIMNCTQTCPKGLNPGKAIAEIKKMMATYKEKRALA
Complex II (CII), sequence (Q641Z9 30-169 limits assumed): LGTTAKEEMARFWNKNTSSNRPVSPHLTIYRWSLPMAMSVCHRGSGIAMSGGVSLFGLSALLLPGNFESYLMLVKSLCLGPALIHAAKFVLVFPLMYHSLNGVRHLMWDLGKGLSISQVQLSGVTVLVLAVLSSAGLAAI
Complex II (CII), sequence (Q6PCT8 57-159): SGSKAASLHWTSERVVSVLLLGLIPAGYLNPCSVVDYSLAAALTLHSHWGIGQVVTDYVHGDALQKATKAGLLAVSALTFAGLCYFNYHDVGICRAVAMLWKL
Complex II (CII), sequence (Q920L2 35-656 partner): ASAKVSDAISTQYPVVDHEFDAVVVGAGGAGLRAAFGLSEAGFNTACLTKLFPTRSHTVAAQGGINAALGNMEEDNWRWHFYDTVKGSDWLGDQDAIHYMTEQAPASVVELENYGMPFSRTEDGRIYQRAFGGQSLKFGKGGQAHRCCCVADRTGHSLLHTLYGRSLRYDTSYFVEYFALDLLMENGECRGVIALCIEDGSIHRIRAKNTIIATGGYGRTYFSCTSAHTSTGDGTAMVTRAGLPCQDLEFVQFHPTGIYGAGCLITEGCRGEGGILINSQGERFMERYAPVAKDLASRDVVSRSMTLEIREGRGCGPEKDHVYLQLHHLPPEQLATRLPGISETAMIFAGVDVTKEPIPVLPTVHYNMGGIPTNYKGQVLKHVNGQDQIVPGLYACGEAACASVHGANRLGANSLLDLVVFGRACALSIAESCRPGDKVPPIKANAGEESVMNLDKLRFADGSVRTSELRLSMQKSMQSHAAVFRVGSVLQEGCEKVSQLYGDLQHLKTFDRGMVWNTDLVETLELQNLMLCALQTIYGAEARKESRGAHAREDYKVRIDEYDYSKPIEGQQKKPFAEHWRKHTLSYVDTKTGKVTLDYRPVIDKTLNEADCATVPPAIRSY
Data set [1] deals with PC3 prostate cancer cells under hypoxia. Kind of data set: Hypoxia cytotoxicity in microfluidic culture.
The next data set deals with bovine CII. The following applies: read-out: bovine CII IC50; cited from earlier work.
Data set [2] concerns the target Complex I (NADH ubiquinone-oxidoreductase) (Mus musculus, UniProt P03888+Q91WD5+Q9DC70). Nature of the data set: Complex I inhibition assay. The format is biochemical. The settings on record: for Selectivity Ratio (CII:CI): Complex I IC50 / Complex II IC50.
Another data set relates to 22Rv1 cells. Nature of the data set: Seahorse XF metabolic parameters. The format is cell-based, human. The settings on record: 22Rv1, 48 hour incubation.
Data set [3] deals with PC3 prostate cancer cells. Kind of data set: MTS cytotoxicity assay, PC3. The settings on record: Homo sapiens, 48 h, read-out: PC3 IC50. In general terms: Tetrazolium dyes change colour on reduction, which living cells bring about.
For data set [4], the system named is DU-145 prostate cancer cells. Kind of data set: MTS cytotoxicity assay, DU-145. The following applies: Homo sapiens, DU-145, 48 h, read-out: DU-145 IC50.
The subject of another data set is HEK293 cells. Kind of data set: MTS cytotoxicity assay, HEK293. The following applies: for IC50: Homo sapiens, HEK293, 48 h, read-out: HEK293 IC50.
In data set [5] the test system is 22Rv1 prostate cancer cells. Kind of data set: MTS cytotoxicity assay, 22Rv1. The following applies: 22Rv1, 48 hours; plateau beyond.
The test system of the next data set is CII. The settings on record: read-out: CII IC50, cited from earlier work.
The mark [6] stands for this setting: CII IC50, rat heart mitochondria, mean of n = 4 ± S.D.

Turning to `CCCCCC(O)c1c(O)nc(OC)c(OC)c1O` (racemic) [compound 18, (rac)-3-(1-hydroxyhexyl)-5,6-dimethoxypyridine-2,4-diol], the “CII inhibition activity (in words)” value at Complex II (CII) is recorded as “no CII inhibition activity”. Moreover, the inhibition at 0.1 µM on Complex II (CII) (read-out: inhibition of CII at 100 nM concentration) was 0%. Further, in [1] (up to 10 μM), the “cytotoxic effect under hypoxia (in words)” value was “no cytotoxic effect”.
Turning to `CCCCCC(O)c1cnc(OC)c(OC)c1O` (racemic) [compound 19, (rac)-5-(1-hydroxyhexyl)-2,3-dimethoxypyridin-4-ol], the “CII inhibition activity (in words)” value on Complex II (CII) is “inactive”.
As to `COc1nc(O)c(C(=O)c2ccco2)c(O)c1OC` [16a, (2,4-dihydroxy-5,6-dimethoxypyridin-3-yl)(furan-2-yl)methanone], the “CII inhibition activity (in words)” value at Complex II (CII) was “abrogates CII inhibition activity”.
Turning to `CCCCC(=O)c1c(O)nc(OC)c(OC)c1O` [16b, 1-(2,4-dihydroxy-5,6-dimethoxypyridin-3-yl)pentan-1-one], the IC50 on Complex II (CII) (setting [6]) is 345 nM and 346 nM; in the data set with bovine CII, 96 nM. At Complex II (CII), this compound gave an LLE of 5.37.
In the case of `CCCCCC(=O)c1c(O)nc(OC)c(OC)c1O` [16c, 1-(2,4-dihydroxy-5,6-dimethoxypyridin-3-yl)hexan-1-one], the IC50 against Complex II (CII) (CII IC50 expressed in μg/mL, conversion of the nM IC50) is 64 nM; in data set [2], > 10000 nM; in data set [3], 55 ± 9.4 µg/mL (≈ 204 µM); in [4] it was 13 ± 1.6 µg/mL (≈ 48.3 µM); in the data set on HEK293 cells it was 71 ± 5.2 µg/mL (≈ 264 µM). Further, the LLE on Complex II (CII) was found to be 5.62. The “Selectivity Ratio (CII:CI)” value in data set [2] is >156. The oxygen consumption rate result with 22Rv1 cells (1-100 μM) is reported as “substantially reduced in a dose-dependent manner”. For the same compound, the ATP production result in the data set on 22Rv1 cells (vs no treatment control) is given as “inhibition of ATP production”. Moreover, the basal respiration result in the data set on 22Rv1 cells (vs no treatment control) was “reducing basal respiration”. In addition, the maximal respiration entry in the data set on 22Rv1 cells (vs no treatment control) is recorded as “reduction of maximal respiration”. In addition, the “selectivity for DU-145 and 22Rv1 prostate cancer cells over HEK293” value in the data set with HEK293 cells (ratio of IC50 values) was ~7 fold. This compound gave a cell death in data set [1] (1 μM) of 12%.
`COc1nc(O)c(C(=O)CCCCOCc2ccccc2)c(O)c1OC` [16d, 5-(benzyloxy)-1-(2,4-dihydroxy-5,6-dimethoxypyridin-3-yl)pentan-1-one] came in with an IC50 on Complex II (CII) (setting [6]) of 281 ± 88.7 nM.
Regarding `COc1nc(O)c(C(=O)CCCCO)c(O)c1OC` [16e, 1-(2,4-dihydroxy-5,6-dimethoxypyridin-3-yl)-5-hydroxypentan-1-one], on Complex II (CII) (setting [6]), the IC50 was 3730 ± 1020 nM. For the same compound, the “fold greater CII activity than diazoxide” value at Complex II (CII) (vs literature IC50 of diazoxide) is recorded as 10 fold.
For the compound `CCCCCCC(=O)c1c(O)nc(OC)c(OC)c1O` [16f, 1-(2,4-dihydroxy-5,6-dimethoxypyridin-3-yl)heptan-1-one], the IC50 at Complex II (CII) (setting [6]) is 283 nM; in the data set on bovine CII it was 20 nM. Further, at Complex II (CII), the LLE stood at 4.57.
For the compound `CCCCCCCC(=O)c1c(O)nc(OC)c(OC)c1O` [16g, 1-(2,4-dihydroxy-5,6-dimethoxypyridin-3-yl)octan-1-one], at Complex II (CII), the LLE was 4.89.
At Complex II (CII), `CCCCCCCCC(=O)c1c(O)nc(OC)c(OC)c1O` [16h, 1-(2,4-dihydroxy-5,6-dimethoxypyridin-3-yl)nonan-1-one] displayed an LLE of 4.93.
On the same count and under the same terms, as for `CCCCCCCCCCC(=O)c1c(O)nc(OC)c(OC)c1O` [16j, 1-(2,4-dihydroxy-5,6-dimethoxypyridin-3-yl)undecan-1-one], the figure is 4.32.
In turn, `CCCCCCCCCCCCC(=O)c1c(O)nc(OC)c(OC)c1O` [16k, 1-(2,4-dihydroxy-5,6-dimethoxypyridin-3-yl)tridecan-1-one] returned an LLE on Complex II (CII) of 3.76. The IC50 was 3.29 nM on Complex II (CII) (read-out: CII IC50 expressed in μg/mL, conversion of the nM IC50) and 28 ± 2 µg/mL (≈ 76.2 µM) with HEK293 cells. In addition, the “Selectivity Ratio (CII:CI)” value in data set [2] is reported as >3030. For the same compound, the “concentration at which maximal cytotoxicity is reached” value in data set [5] turned out to be 10000 ng/mL. In addition, in the data set with HEK293 cells (ratio of IC50 values), the “selectivity for 22Rv1 over HEK293 cell line” value turned out to be 14 fold.
With `COc1[nH]c(=O)c(C(=O)[C@@H](C)C[C@H](C)[C@@H](Cl)CCl)c(O)c1OC` [Atpenin A5, atpenin A5, reference compound], the IC50 against Complex II (CII) (setting [6]) is 3.3 ± 2 nM; in the data set with CII, 3.6 to 10 nM.
For the compound `O=C(O)CC(=O)O` [Malonate], the IC50 in the data set on CII was 40000 nM.
`O=C(CC(=O)C(F)(F)F)c1cccs1` [Thenoyltrifluoroacetone]: in the data set on CII (control compound in CII assay kits), the IC50 is 30000 nM.
`CCCCCC(=O)c1cnc(OC)c(OC)c1O` [compound 20, 1-(4-hydroxy-5,6-dimethoxypyridin-3-yl)hexan-1-one]: at Complex II (CII), the “CII inhibition activity at 100 nM concentration (in words)” value is “no activity”.
On to `CCCCCC(OC)c1cnc(OC)c(OC)c1O` (stereo not shown) [compound 24, 2,3-dimethoxy-5-(1-methoxyhexyl)pyridin-4-ol], for which the “CII inhibition activity at 100 nM concentration (in words)” value at Complex II (CII) is reported as “no activity”.
In the case of `Cc1c(C)c2c(c(C)c1OC(=O)CCC(=O)O)CC[C@@](C)(CCC[C@H](C)CCC[C@H](C)CCCC(C)C)O2` [α-Tocopheryl succinate, α -Tocopheryl succinate], the IC50 in the data set with CII is 42000 nM.
